The text below walks through data of US20260216151A1, “GPR65 MODULATORS” (Pathios Therapeutics Limited, priority 2023, published 2026).

The target of the assay is T1, human recombinant GPR65 (Homo sapiens, UniProt Q8IYL9).
T1 construct: host or cells: 1321N1 human astrocytoma cells (1321N1-hrGPR65)
In words: Human GPR65 cAMP HTRF antagonist assay. In kind it is cell-based. As to conditions: 1321N1-hrGPR65 cells, assay pH 7.2, cAMP HTRF; read-out: hGPR65 IC50. Here is the method:
Human GPR65 Cyclic Adenosine Monophosphate (cAMP) Homogeneous Time Resolved Fluorescence (HTRF) Antagonist Assay Procedure
IC50 data was obtained by the following procedure:
1321N1 human astrocytoma cells stably expressing human recombinant GPR65 (1321N1-hrGPR65 cells, EuroscreenFast) were cultured according to the vendor's instructions.
Compounds were tested for their ability to antagonise GPR65, through measuring the concentration of cytoplasmic cAMP following treatment of the cells at a pH of 7.2 to activate GPR65 signalling and addition of the compound to be tested. The extent to which the expected rise in cAMP concentration upon GPR65 activation was suppressed by the added compound is indicative of its potency. The assay was carried out according to EuroscreenFast assay Methodology as follows.
On the day of the assay, test compounds were added to 384-well, low volume, white microtiter plates by acoustic dispensing. KRH buffer (5 mM KCl, 1.25 mM MgSO4, 124 mM NaCl, 25 mM HEPES, 13.3 mM Glucose, 1.25 mM KH2PO4 and 1.45 mM CaCl2) was adjusted to pH 6.5, pH 7.6 and pH 8.4 by adding NaOH. 1321N1-hGPR65 cells were rapidly thawed and diluted in KRH, pH 7.6 prior to centrifugation at 300×g for 5 min and resuspension in assay buffer (KRH, pH 7.6, supplemented with 1 mM 3-isobutyl-1-methylxanthine (IBMX) and 200 μM ethylenediaminetetraacetic acid (EDTA)). Cells were added to assay plates at a density of 2,000 cells per well in a volume of 5 μl. Assay plates were briefly centrifuged at 100×g and then incubated at room temperature for 30 min. Cells were stimulated by the addition of 5 μL KRH, pH 6.5, to achieve an assay pH of 7.2, while control wells received 5 μl KRH, pH 8.4 to achieve an assay pH of 7.9. Assay plates were briefly centrifuged at 100×g and then incubated at room temperature for 30 min.
Accumulation of cAMP was detected by cAMP HTRF kit (Cisbio). d2-labeled cAMP and cryptate-labeled anti-cAMP antibody in Lysis and Detection Buffer (Cisbio) were added to assay plates, and the plates were incubated at room temperature for 1 h. HTRF measurements were performed using a Pherastar FSX instrument. Acceptor and donor emission signals were measured at 665 nm and 620 nm, respectively, and HTRF ratios were calculated as signal665 nm/signal620 nm×10^4. Data were normalised to high and low control values and fitted with 4-parameter logistic regression to determine hGPR65 IC50 values for the test compounds, which are shown in Table 1.

Where only a bound is given, the exact number is not on record here.

T1 sequence (Q8IYL9 whole entry): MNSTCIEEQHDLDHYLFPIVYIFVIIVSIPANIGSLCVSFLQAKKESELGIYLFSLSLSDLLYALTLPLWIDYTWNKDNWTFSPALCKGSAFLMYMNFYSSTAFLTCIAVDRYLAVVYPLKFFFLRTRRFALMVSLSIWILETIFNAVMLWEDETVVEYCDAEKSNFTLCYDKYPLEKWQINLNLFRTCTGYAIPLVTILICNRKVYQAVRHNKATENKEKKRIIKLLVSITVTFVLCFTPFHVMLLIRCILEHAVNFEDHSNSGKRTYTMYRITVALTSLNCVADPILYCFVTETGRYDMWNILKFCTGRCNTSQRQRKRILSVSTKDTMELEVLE

For `Cc1cc(-c2ccc(OCC(F)(F)F)nc2)c(Cl)cc1NC(=O)N1CCc2cc(=O)[nH]cc2C1` [Compound 15, N-(5-Chloro-2-methyl-4-(6-(2,2,2-trifluoroethoxy)pyridin-3-yl)phenyl)-6-oxo-3,4,6,7-tetrahydro-2,7-naphthyridine-2(1H)-carboxamide], the half-maximal inhibitory concentration (IC50) is 500 to 5000 nM. For `COc1cc(-c2ccc(OCC(F)(F)F)nc2)c(Cl)cc1NC(=O)N1CCc2cc(=O)[nH]cc2C1` [Compound 14, N-(5-chloro-2-methoxy-4-(6-(2,2,2-trifluoroethoxy)pyridin-3-yl)phenyl)-6-oxo-3,4,6,7-tetrahydro-2,7-naphthyridine-2(1H)-carboxamide], the IC50 was in the range of 500 to 5000 nM.

For `O=C(Nc1cc(Cl)c(-c2ccc(OCC(F)(F)F)nc2)cc1F)N1CCc2cc(=O)[nH]cc2C1` [Compound 6, N-(5-Chloro-2-fluoro-4-(6-(2,2,2-trifluoroethoxy)pyridin-3-yl)phenyl)-6-oxo-3,4,6,7-tetrahydro-2,7-naphthyridine-2(1H)-carboxamide], the IC50 was < 500 nM. The result for `O=C(Nc1cc(Cl)c(-c2cnc3nonc3c2)cc1F)N1CCc2cc(=O)[nH]cc2C1` [Compound 4, N-(4-([1,2,5]Oxadiazolo[3,4-b]pyridin-6-yl)-5-chloro-2-fluorophenyl)-6-oxo-3,4,6,7-tetrahydro-2,7-naphthyridine-2(1H)-carboxamide] reads 500 to 5000 nM; that for `CC(C)COc1ccc(-c2cc(F)c(NC(=O)N3CCc4cc(=O)[nH]cc4C3)cc2Cl)cn1` [Compound 9, N-(5-Chloro-2-fluoro-4-(6-isobutoxypyridin-3-yl)phenyl)-6-oxo-3,4,6,7-tetrahydro-2,7-naphthyridine-2(1H)-carboxamide], < 500 nM; that for `O=C(Nc1cc(Cl)c(-c2ccc3nonc3c2)cc1F)N1CCc2cc(=O)[nH]nc2C1` [Compound 13, N-(4-(Benzo[c][1,2,5]oxadiazol-5-yl)-5-chloro-2-fluorophenyl)-3-oxo-2,5,6,8-tetrahydropyrido[3,4-c]pyridazine-7(3H)-carboxamide], < 500 nM. The figure for `O=C(Nc1cc(Cl)c(-c2ccc(F)nc2)cc1F)N1CCc2cc(=O)[nH]cc2C1` [Compound 3, N-(5-chloro-2-fluoro-4-(6-fluoropyridin-3-yl)phenyl)-6-oxo-3,4,6,7-tetrahydro-2,7-naphthyridine-2(1H)-carboxamide] is 500 to 5000 nM; for `COc1ccc(-c2cc(F)c(NC(=O)N3CCc4cc(=O)[nH]cc4C3)cc2Cl)cn1` [Compound 2, N-(5-Chloro-2-fluoro-4-(6-methoxypyridin-3-yl)phenyl)-6-oxo-3,4,6,7-tetrahydro-2,7-naphthyridine-2(1H)-carboxamide] it is < 500 nM. In the case of `O=C(Nc1cc(Cl)c(-c2ccc(F)nc2)cc1OCc1ccccc1)N1CCc2cc(=O)[nH]cc2C1` [Compound 16, N-(2-(Benzyloxy)-5-chloro-4-(6-fluoropyridin-3-yl)phenyl)-6-oxo-3,4,6,7-tetrahydro-2,7-naphthyridine-2(1H)-carboxamide], the IC50 was > 5000 nM. The result for `O=C(Nc1cc(Cl)c(-c2cc(F)c3nonc3c2)cc1F)N1CCc2cc(=O)[nH]cc2C1` [Compound 7, N-(5-Chloro-2-fluoro-4-(7-fluorobenzo[c][1,2,5]oxadiazol-5-yl)phenyl)-6-oxo-3,4,6,7-tetrahydro-2,7-naphthyridine-2(1H)-carboxamide] reads < 500 nM. Regarding `O=C(Nc1cc(Cl)c(-c2cc3nonc3cc2F)cc1F)N1CCc2cc(=O)[nH]cc2C1` [Compound 8, N-(5-Chloro-2-fluoro-4-(6-fluorobenzo[c][1,2,5]oxadiazol-5-yl)phenyl)-6-oxo-3,4,6,7-tetrahydro-2,7-naphthyridine-2(1H)-carboxamide], the half-maximal inhibitory concentration (IC50) is < 500 nM. For the compound `O=C(Nc1cc(Cl)c(-c2ccnc(OCC(F)(F)F)c2)cc1F)N1CCc2cc(=O)[nH]cc2C1` [Compound 11, N-(5-Chloro-2-fluoro-4-(2-(2,2,2-trifluoroethoxy)pyridin-4-yl)phenyl)-6-oxo-3,4,6,7-tetrahydro-2,7-naphthyridine-2(1H)-carboxamide], the half-inhibitory concentration (IC50) was < 500 nM. The figure for `O=C(Nc1cc(Cl)c(-c2cnc(OCC(F)(F)F)c(F)c2)cc1F)N1CCc2cc(=O)[nH]cc2C1` [Compound 10, N-(5-Chloro-2-fluoro-4-(5-fluoro-6-(2,2,2-trifluoroethoxy)pyridin-3-yl)phenyl)-6-oxo-3,4,6,7-tetrahydro-2,7-naphthyridine-2(1H)-carboxamide] is < 500 nM. The figure for `O=C(Nc1cc(Cl)c(-c2ccc3nonc3c2)cc1F)N1CCc2cc(=O)[nH]cc2C1` [Compound 1, N-(4-(Benzo[c][1,2,5]oxadiazol-5-yl)-5-chloro-2-fluorophenyl)-6-oxo-3,4,6,7-tetrahydro-2,7-naphthyridine-2(1H)-carboxamide] is < 500 nM; for `O=C(Nc1cc(Cl)c(-c2cnc3nonc3c2)cc1F)N1CCc2c(ccnc2F)C1` [Compound 5, N-(4-([1,2,5]Oxadiazolo[3,4-b]pyridin-6-yl)-5-chloro-2-fluorophenyl)-5-fluoro-3,4-dihydro-2,6-naphthyridine-2(1H)-carboxamide] it is < 500 nM; for `O=C(Nc1cc(Cl)c(-c2ccc(OCC(F)(F)F)nc2)cc1F)N1CCc2cc(=O)[nH]nc2C1` [Compound 12, N-(5-Chloro-2-fluoro-4-(6-(2,2,2-trifluoroethoxy)pyridin-3-yl)phenyl)-3-oxo-2,5,6,8-tetrahydropyrido[3,4-c]pyridazine-7(3H)-carboxamide] it is < 500 nM.

Usually IC50 stands for the concentration that gives 50% inhibition.
